Experimental data published in PubChem BioAssay AID1259407 (Chemical Carcinogenesis Research Information System (CCRIS), 2018).
Active and inactive are the calls of the source. The rule behind the calls is not given here.

Tested on: CCRIS mutagenicity, Ames/micronucleus/aberration tests
Assay: CCRIS mutagenicity studies
[1] = Test System: AMES SALMONELLA TYPHIMURIUM, Strain/Indicator: TA98, Metabolic Activation: NONE, Method: STANDARD PLATE

## COCCCN(N=O)C(N)=O
Test System: E. COLI B, Strain/Indicator: H/R30R, Metabolic Activation: NONE
  mutagenic call: active; positive
Test System: E. COLI B, Strain/Indicator: HS30R, Metabolic Activation: NONE
  mutagenic call: active; positive

## O=c1c(Cl)c(Cl)cnn1S(=O)(=O)c1ccc([N+](=O)[O-])cc1
[1]
  mutagenic call: active; positive
Test System: AMES SALMONELLA TYPHIMURIUM, Strain/Indicator: TA98, Metabolic Activation: RAT, LIVER, S-9, AROCLOR 1254, Method: STANDARD PLATE
  mutagenic call: inactive; negative
Test System: AMES SALMONELLA TYPHIMURIUM, Strain/Indicator: TA100, Metabolic Activation: NONE, Method: STANDARD PLATE
  mutagenic call: active; positive
Test System: AMES SALMONELLA TYPHIMURIUM, Strain/Indicator: TA100, Metabolic Activation: RAT, LIVER, S-9, AROCLOR 1254, Method: STANDARD PLATE
  mutagenic call: active; positive
Test System: AMES SALMONELLA TYPHIMURIUM, Strain/Indicator: TA1535, Metabolic Activation: NONE, Method: STANDARD PLATE
  mutagenic call: inactive; negative
Test System: AMES SALMONELLA TYPHIMURIUM, Strain/Indicator: TA1535, Metabolic Activation: RAT, LIVER, S-9, AROCLOR 1254, Method: STANDARD PLATE
  mutagenic call: active; positive
Test System: AMES SALMONELLA TYPHIMURIUM, Strain/Indicator: TA1537, Metabolic Activation: NONE, Method: STANDARD PLATE
  mutagenic call: inactive; negative
Test System: AMES SALMONELLA TYPHIMURIUM, Strain/Indicator: TA1537, Metabolic Activation: RAT, LIVER, S-9, AROCLOR 1254, Method: STANDARD PLATE
  mutagenic call: inactive; negative

## Cc1ccc([N+](=O)[O-])c(S(=O)(=O)O)c1[N+](=O)[O-]
End Point: In vitro chromosomal aberrations, Test System: V79 Chinese hamster fibroblasts, Metabolic Activation: None
  mutagenic call: inactive; negative
Test System: Ames Salmonella typhimurium, Strain/Indicator: TA98, Metabolic Activation: None, Method: Standard plate
  mutagenic call: inactive; negative
Test System: Ames Salmonella typhimurium, Strain/Indicator: TA98, Metabolic Activation: Rat, Liver, S-9, Method: Standard plate
  mutagenic call: inactive; negative
Test System: Ames Salmonella typhimurium, Strain/Indicator: TA100, Metabolic Activation: None, Method: Standard plate
  mutagenic call: inactive; negative
Test System: Ames Salmonella typhimurium, Strain/Indicator: TA100, Metabolic Activation: Rat, Liver, S-9, Method: Standard plate
  mutagenic call: inactive; negative

## O=[N+]([O-])c1ccc(-c2ccc([N+](=O)[O-])cc2)cc1
Test System: AMES SALMONELLA TYPHIMURIUM, Strain/Indicator: TA98(1,8-DNP6), Metabolic Activation: NONE, Method: STANDARD PLATE
  mutagenic call: active; positive
Test System: AMES SALMONELLA TYPHIMURIUM, Strain/Indicator: TA98(NR), Metabolic Activation: NONE, Method: STANDARD PLATE
  mutagenic call: inactive; negative
Test System: AMES SALMONELLA TYPHIMURIUM, Strain/Indicator: TA98, Metabolic Activation: NONE, Method: PREINCUBATION
  mutagenic call: active; positive
[1]
  mutagenic call: active; positive
Test System: AMES SALMONELLA TYPHIMURIUM, Strain/Indicator: TA98, Metabolic Activation: RAT, LIVER, S-9, PCB (10%), Method: PREINCUBATION
  mutagenic call: active; positive
